Data published in patent US20150125542A1, “TIE2 Activator, Vascular Endothelial Growth Factor (VEGF) Inhibitor, Angiogenesis Inhibitor, Vascular Maturing Agent, Vascular Normalizing Agent and Vascular Stabilizing Agent, and Pharmaceutical Composition” (Maruzen Pharmaceuticals Co., Ltd., priority 2010, published 2015).
One block for each molecule: values may come before it.

What was measured:
[1] = test system: human normal umbilical vein vascular endothelial cells co-cultured with human normal dermal fibroblasts; assay: Angiogenesis inhibitory effect test (angiogenesis kit, number of luminal branching, VEGF-A); format: cell-based; conditions: VEGF-A (+) 10 ng/mL
Description: The pharmacological effect, i.e., angiogenesis inhibitory effect of the hawthorn extract was evaluated by measuring a decrease of the number of vascular branching by means of image analysis as follows. At first, human normal umbilical vein vascular endothelial cells were co-cultured with human normal dermal fibroblasts at a constant ratio using the angiogenesis kit (product of KURABO INDUSTRIES LTD.) to a proliferative state at the early stage of lumen formation. The test sample, the hawthorn extract (fruits) (HAWTHORN EXTRACT POWDER MF, product of MARUZEN PHARMACEUTICALS CO., LTD.), was added to media so as to have concentrations described in Table 2 in the presence of 10 ng/mL of vascular endothelial cell growth factor-A (VEGF-A) (product of KURABO INDUSTRIES LTD.), followed by incubation at 37° C. and 5% CO2. […] The CD31 (PECAM-1) in HUVEC cells was stained with the lumen staining kit (CD31, product of KURABO INDUSTRIES LTD.) The stained cells in the wells were photographed and counted for the number of luminal branching. Based on the thus-obtained number of luminal branching, the angiogenesis inhibitory effect was evaluated.

Tie2 = target: T1, Tie2 (Homo sapiens, UniProt Q02763); assay: Tie2 activating effect (immunoassay) test in HUVECs; format: cell-based
T1 construct: endogenous in cells; host or cells: HUVEC (human umbilical vein endothelial cells)
Description: The pharmacological effect of the hawthorn extract was evaluated by detecting the amount of phosphorylated Tie2 protein. The phosphorylated Tie2 protein was quantified by means of an immunochemical method including an immunoassay. The method was performed as follows.
At first, normal human umbilical vein endothelial cells (HUVECs) were cultured to confluent, inoculated into a 96-well plate at 2.0×10^4 cells/0.1 mL/well, and then cultured over night in a low-serum growth medium for vascular endothelial cells (HUMEDIA-EG2, product of KURABO INDUSTRIES LTD.) Next, the low-serum growth medium was replaced by 0.1 mL of a basal medium for vascular endothelial cells (HUMEDIA-EB2, product of KURABO INDUSTRIES LTD.) at 3 hours before cell stimulation (addition of test samples), and the post-cultured HUVECs were again cultured therein. […] After completion of the incubation, the amount of phosphorylated Tie2 and the total amount of Tie2 in the cells were measured by the immunoassay kit (HUMAN PHOSPHO-TIE2 (Y992) IMMUNOASSAY, product of R&D Systems) according to a manufacturer's protocol to thereby calculate the ratio of the amount of phosphorylated Tie2 to the total amount of Tie2.
Similarly, the ratio of the amount of phosphorylated Tie2 to the total amount of Tie2 was calculated in the case of using dimethyl sulfoxide (DMSO) as a negative control. […]

T1 sequence (Q02763 23-1124): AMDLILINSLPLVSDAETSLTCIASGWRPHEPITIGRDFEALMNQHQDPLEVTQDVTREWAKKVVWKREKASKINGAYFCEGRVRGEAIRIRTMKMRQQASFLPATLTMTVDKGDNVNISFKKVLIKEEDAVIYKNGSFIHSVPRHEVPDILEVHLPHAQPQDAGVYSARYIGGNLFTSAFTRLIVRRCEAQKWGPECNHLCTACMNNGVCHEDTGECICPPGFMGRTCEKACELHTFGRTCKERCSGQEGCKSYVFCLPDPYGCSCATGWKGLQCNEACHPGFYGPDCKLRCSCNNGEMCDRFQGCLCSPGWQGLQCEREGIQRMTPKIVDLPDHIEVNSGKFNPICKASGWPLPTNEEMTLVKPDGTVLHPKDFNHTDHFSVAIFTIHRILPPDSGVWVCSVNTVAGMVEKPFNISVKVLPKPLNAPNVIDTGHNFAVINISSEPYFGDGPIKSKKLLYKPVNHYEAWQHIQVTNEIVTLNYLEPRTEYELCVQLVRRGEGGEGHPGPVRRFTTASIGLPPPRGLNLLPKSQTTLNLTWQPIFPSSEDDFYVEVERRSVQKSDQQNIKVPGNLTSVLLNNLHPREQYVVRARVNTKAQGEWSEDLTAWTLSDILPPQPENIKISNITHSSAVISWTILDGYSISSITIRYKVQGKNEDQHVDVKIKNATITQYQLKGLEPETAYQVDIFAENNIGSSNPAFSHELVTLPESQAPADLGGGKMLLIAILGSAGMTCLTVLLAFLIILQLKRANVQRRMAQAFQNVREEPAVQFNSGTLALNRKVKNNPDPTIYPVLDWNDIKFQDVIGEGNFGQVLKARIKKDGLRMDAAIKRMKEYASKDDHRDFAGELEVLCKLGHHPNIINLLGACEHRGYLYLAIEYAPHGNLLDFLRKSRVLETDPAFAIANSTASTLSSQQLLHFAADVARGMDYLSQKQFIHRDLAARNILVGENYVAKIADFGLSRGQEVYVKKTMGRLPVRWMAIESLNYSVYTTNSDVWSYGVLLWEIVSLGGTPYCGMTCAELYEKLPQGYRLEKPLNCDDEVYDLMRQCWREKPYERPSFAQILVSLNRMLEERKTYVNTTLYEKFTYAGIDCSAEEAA

Molecule: Cc1ccc(C(=O)Nc2ccc(S(=O)(=O)O)c3cc(S(=O)(=O)O)cc(S(=O)(=O)O)c23)cc1NC(=O)c1cccc(NC(=O)Nc2cccc(C(=O)Nc3cc(C(=O)Nc4ccc(S(=O)(=O)O)c5cc(S(=O)(=O)O)cc(S(=O)(=O)O)c45)ccc3C)c2)c1 [Suramin]
Number of vascular branching ([1]; 50 μM, Means ± S.E., n = 3): 30.0 ± 4.0
inhibition at 50 µM ([1]; Homo sapiens, read-out: Angiogenesis inhibitory rate (%)): 70.8%

Activation rate of Tie2 (%) (Tie2; 0.5 μg/mL, 10 min, negative control DMSO = 100, Means ± S.E., n = 4): 130.2 ± 8.3 %
B1: Angiopoietin-1: Angiopoietin-1 (product of R&D Systems, Inc.) as a positive control (protein, UniProt Q15389 16-498, looked up)
Angiopoietin-1: HIGCSNQRRSPENSGRRYNRIQHGQCAYTFILPEHDGNCRESTTDQYNTNALQRDAPHVEPDFSSQKLQHLEHVMENYTQWLQKLENYIVENMKSEMAQIQQNAVQNHTATMLEIGTSLLSQTAEQTRKLTDVETQVLNQTSRLEIQLLENSLSTYKLEKQLLQQTNEILKIHEKNSLLEHKILEMEGKHKEELDTLKEEKENLQGLVTRQTYIIQELEKQLNRATTNNSVLQKQQLELMDTVHNLVNLCTKEGVLLKGGKREEEKPFRDCADVYQAGFNKSGIYTIYINNMPEPKKVFCNMDVNGGGWTVIQHREDGSLDFQRGWKEYKMGFGNPSGEYWLGNEFIFAITSQRQYMLRIELMDWEGNRAYSQYDRFHIGNEKQNYRLYLKGHTGTAGKQSSLILHGADFSTKDADNDNCMCKCALMLTGGWWFDACGPSNLNGMFYTAGQNHGKLNGIKWHYFKGPSYSLRSTTMMIRPLDF
Tie2 activating effect (immunoassay), in words (Tie2; immunoassay kit): verified to be phosphorylated and thus activated
